The target in this assay is NR1/NR2B (Homo sapiens (Human), UniProt Q05586+Q13224). Nature of the assay: Cell assay: FDSS Ca2+ influx inhibition in HEK293 cells expressing NR1/NR2B.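 Note: Fluo-8 Ca2+ signal read on Hamamatsu FDSS 6000 after glutamate, glycine and Ca2+ challenge following 10 min compound preincubation, end/baseline fluorescence ratio compared with MK801 control.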
[1] abbreviates: Binned Activity, HEK293 cells expressing NR1/NR2B, Ca2+ influx, binned NR2B NAM IC50.
Where [2] appears, read: NR2B NAM IC50, HEK293 cells expressing NR1/NR2B, Ca2+ influx.

Our source for the IC50 values is patent US10052306B2 (LUC THERAPEUTICS, INC., priority 2013, dated 2018).

One may read the IC50 as the concentration at which inhibition is half-maximal. A low value points to greater potency.

Chain of NR1/NR2B (Q13224 27-1484, other chains not shown): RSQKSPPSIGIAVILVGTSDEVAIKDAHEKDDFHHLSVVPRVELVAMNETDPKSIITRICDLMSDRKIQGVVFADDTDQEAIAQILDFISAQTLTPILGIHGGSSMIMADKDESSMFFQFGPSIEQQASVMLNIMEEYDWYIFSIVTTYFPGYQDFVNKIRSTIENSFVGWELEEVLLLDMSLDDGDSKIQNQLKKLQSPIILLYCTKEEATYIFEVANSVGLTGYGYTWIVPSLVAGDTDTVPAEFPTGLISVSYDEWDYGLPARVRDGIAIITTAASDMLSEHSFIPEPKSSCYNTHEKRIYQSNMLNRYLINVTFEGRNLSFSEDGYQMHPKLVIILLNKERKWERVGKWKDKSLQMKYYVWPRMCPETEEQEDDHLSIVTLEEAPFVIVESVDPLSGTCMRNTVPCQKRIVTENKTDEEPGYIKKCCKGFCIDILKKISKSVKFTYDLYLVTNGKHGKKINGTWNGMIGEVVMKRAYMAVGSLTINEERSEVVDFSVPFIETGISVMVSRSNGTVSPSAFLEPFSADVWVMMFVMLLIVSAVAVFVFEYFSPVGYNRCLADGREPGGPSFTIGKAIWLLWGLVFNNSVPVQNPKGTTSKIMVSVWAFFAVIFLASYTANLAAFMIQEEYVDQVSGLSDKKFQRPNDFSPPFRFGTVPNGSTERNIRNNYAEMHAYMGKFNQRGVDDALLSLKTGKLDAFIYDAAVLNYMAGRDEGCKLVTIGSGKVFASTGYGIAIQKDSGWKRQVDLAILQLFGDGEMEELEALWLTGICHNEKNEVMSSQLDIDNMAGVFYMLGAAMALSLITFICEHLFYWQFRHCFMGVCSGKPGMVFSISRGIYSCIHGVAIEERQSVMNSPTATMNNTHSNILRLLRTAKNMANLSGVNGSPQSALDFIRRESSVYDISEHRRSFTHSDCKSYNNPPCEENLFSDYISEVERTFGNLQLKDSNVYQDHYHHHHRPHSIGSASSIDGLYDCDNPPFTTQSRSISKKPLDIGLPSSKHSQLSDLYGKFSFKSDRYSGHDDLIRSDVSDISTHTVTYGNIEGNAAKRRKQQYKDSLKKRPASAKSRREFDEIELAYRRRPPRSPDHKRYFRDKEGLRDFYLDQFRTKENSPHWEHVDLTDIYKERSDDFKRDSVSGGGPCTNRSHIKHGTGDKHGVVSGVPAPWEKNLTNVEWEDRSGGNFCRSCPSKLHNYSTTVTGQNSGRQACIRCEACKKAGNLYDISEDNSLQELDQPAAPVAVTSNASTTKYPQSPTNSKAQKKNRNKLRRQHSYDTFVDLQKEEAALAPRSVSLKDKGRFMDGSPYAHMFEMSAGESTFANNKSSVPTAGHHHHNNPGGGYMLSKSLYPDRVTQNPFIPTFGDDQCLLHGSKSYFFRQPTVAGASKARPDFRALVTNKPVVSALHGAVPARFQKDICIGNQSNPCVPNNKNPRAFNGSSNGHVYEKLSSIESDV

Turning to `Oc1ccc(C(O)CN2C[C@@H]3C[C@@](O)(c4cccnc4F)C[C@@H]3C2)nc1` (mixture of isomers) [Example 251, rac-(3aR,6aS)-5-(2-fluoropyridin-3-yl)-2-(2-hydroxy-2-(5-hydroxypyridin-2-yl)ethyl)octahydrocyclo-penta[c]pyrrol-5-ol], the IC50 was above 10 µM under setting [1] and at least 10 µM under setting [2].
As to `COc1cccc([C@]2(O)C[C@H]3CN(CC(O)c4cccc(F)c4)C[C@H]3C2)c1` (mixture of isomers) [Example 63, rac-2-[2-(3-fluorophenyl)-2-hydroxyethyl]-5-(3-methoxyphenyl)-octahydrocyclopenta[c] pyrrol-5-ol], the IC50 is, setting by setting: under setting [1], above 10 µM; under setting [2], at least 10 µM.
For the compound `Oc1ccc(C(O)CN2C[C@@H]3C[C@@](O)(Cc4ccc(F)cc4)C[C@@H]3C2)cc1F` (mixture of isomers) [Example 171, rac-(3aR,5r,6aS)-2-(2-(3-fluoro-4-hydroxyphenyl)-2-hydroxyethyl)-5-(4-fluorobenzyl)octahydro-cyclopenta[c]pyrrol-5-ol], under setting [2], the IC50 was 0.0221 µM.
On to `Oc1ccc(C(O)CN2C[C@@H]3C[C@@](O)(CCc4ccccc4)C[C@@H]3C2)cc1` (mixture of isomers) [Example 321, rac-2-(2-hydroxy-2-(4-hydroxyphenyl)ethyl)-5-phenethyloctahydro-cyclopenta[c] pyrrol-5-ol], for which the IC50 is above 10 µM under setting [1] and at least 10 µM under setting [2].
For `N#Cc1cccc(NC(=O)N2C[C@@H]3C[C@@](O)(Cc4ccccc4)C[C@@H]3C2)c1` [Example 123, (3aR,5r,6aS)-5-benzyl-N-(3-cyanophenyl)-5-hydroxyhexahydrocyclo-penta[c]pyrrole-2(1H)-carboxamide], the 50% inhibitory concentration (IC50) was above 10 µM under setting [1] and at least 10 µM under setting [2].
The compound `CC(=O)Nc1ccc(C(O)CN2C[C@@H]3C[C@@](O)(Cc4ccccc4)C[C@@H]3C2)cc1` (mixture of isomers) [Example 149, rac-N-(4-(2-((3aR,5r,6aS)-5-benzyl-5-hydroxyhexahydrocyclo-penta[c]pyrrol-2(1H)-yl)-1-hydroxyethyl)phenyl)acet-amide] had an IC50 under setting [2] of 2.31 µM.
`Oc1ccc(C(O)CN2C[C@@H]3C[C@@](F)(Cc4ccccc4)C[C@@H]3C2)cc1` (mixture of isomers) [Example 313, rac-4-(2-((3aR,5r,6aS)-5-benzyl-5-fluoro-hexahydrocyclopen-ta[c]pyrrol-2(1H)-yl)-1-hydroxyethyl)phenol]: the IC50 is below 0.1 µM under setting [1] and 0.0269 µM under setting [2].
Taken in the same sequence, the figures for `OC(CN1C[C@@H]2C[C@@](O)(c3ccccc3)C[C@@H]2C1)c1cccc(F)c1` (mixture of isomers) [Example 64, rac-2-[2-(3-fluorophenyl)-2-hydroxyethyl]-5-phenyl-octahydrocyclopenta[c] pyrrol-5-ol] were above 10 µM and at least 10 µM.
Taken in the same sequence, the figures for `Oc1cnc(C(O)CN2C[C@@H]3C[C@@](O)(Cc4ccccc4)C[C@@H]3C2)nc1` (mixture of isomers) [Example 203, rac-2-{2-[(3aR,5R,6aS)-5-benzyl-5-hydroxy-octahydrocyclopenta[c]pyrrol-2-yl]-1-hydroxyethyl}pyrimidin-5-ol] were 1 to 10 µM and 3.4 µM.
`Oc1ccc(C(O)CN2C[C@@H]3C[C@@](O)(Cc4cccs4)C[C@@H]3C2)nc1` (mixture of isomers) [Example 215, rac-2-(2-hydroxy-2-(5-hydroxypyridin-2-yl)ethyl)-5-(thiophen-2-ylmethyl)octahydrocyclo-penta[c]pyrrol-5-ol] registered an IC50 under setting [2] of 0.0257 µM.
Take `Oc1ccc(C(O)CN2C[C@H]3CC(Cc4ccccc4)C[C@H]3C2)nc1` (mixture of isomers) [Example 298, rac-6-(2-{5-benzyl-octahydrocyclopenta[c]pyrrol-2-yl}-1-hydroxyethyl)pyridin-3-ol]: under setting [2], the IC50 turned out to be 0.0224 µM.
For `Cc1cc(C)cc(C[C@]2(O)C[C@H]3CN(CC(O)c4ccc(O)cn4)C[C@H]3C2)c1` (mixture of isomers) [Example 208, rac-6-{2-[(3aR,5R,6aS)-5-[(3,5-dimethylphenyl)methyl]-5-hydroxy-octahydrocyclopenta[c]pyrrol-2-yl]-1-hydroxyethyl}pyridin-3-ol-3-ol], the IC50 under setting [2] was found to be 0.666 µM.
The same measure, in the same setting: next, `CO[C@@]1(Cc2ccccc2)C[C@H]2CN(CC(O)c3ccc(O)c(F)n3)C[C@H]2C1` (mixture of isomers) [Example 198, rac-6-(2-((3aR,5r,6aS)-5-benzyl-5-methoxyhexahydrocyclo-penta[c]pyrrol-2(1H)-yl)-1-hydroxyethyl)-2-fluoropyridin-3-ol]: 0.476 µM.
As to `CC(C(=O)c1ccc(O)cc1)N1C[C@H]2CC(CCc3ccccc3)C[C@H]2C1` (mixture of isomers) [Example 322, rac-1-(4-hydroxy-phenyl)2-[(5R)-5-(2-phenylethyl)-octahydrocyclopenta[c]pyrrol-2-yl]propan-1-one], the IC50 runs as follows: (Binned Activity) 0.1 to 1 µM; (NR2B NAM IC50) 0.533 µM.
`CC(C(=O)c1ccc(O)cc1)N1C[C@H]2CC(Cc3ccccc3)C[C@H]2C1` (mixture of isomers) [Example 296, rac-2-((3aR,6aS)-5-benzylhexahydrocyclo-penta[c]pyrrol-2(1H)-yl)-1-(4-hydroxyphenyl)propan-1-one]: the half-maximal inhibitory concentration (IC50) by setting is: under setting [1], 0.1 to 1 µM; under setting [2], 0.125 µM.
Compound `Oc1ccc(C(O)CN2CC3(C2)CC(O)(Cc2ccccc2)C3)cc1` (racemic) [Example 343, rac-6-benzyl-2-(2-hydroxy-2-(4-hydroxyphenyl)ethyl)-2-azaspiro[3.3]heptan-6-ol] yielded an IC50 under setting [2] of 0.506 µM.
Regarding `COc1cccc([C@]2(O)C[C@H]3CN(C(=O)Nc4cccnc4)C[C@H]3C2)c1` [Cmpd 46, 5-hydroxy-5-(3-methoxyphenyl)-N-(pyridin-3-yl)-octahydrocyclopenta[c] pyrrole-2-carboxamide], the IC50 under setting [1] was above 10 µM.
With `COc1cccc(C(O)CN2C[C@H]3C[C@@H](c4ccccc4)C[C@H]3C2)c1` (mixture of isomers) [Example 117, rac-1-(3-methoxyphenyl)-2-{5-phenyl-octahydrocyclopenta[c]pyrrol-2-yl}ethan-1-ol], the IC50 is, setting by setting: under setting [1], above 10 µM; under setting [2], at least 10 µM.
Take `O=C(Nc1ccc(F)cc1)N1C[C@@H]2C[C@@](O)(c3ccc(F)cc3)C[C@@H]2C1` [Example 35, N,5-bis(4-fluorophenyl)-5-hydroxy-octahydrocyclopenta[c] pyrrole-2-carboxamide]: under setting [1], the IC50 is above 10 µM.
With `CC(C(=O)c1ccc(O)cc1)N1C[C@@H]2C[C@@](O)(c3ccc(C(C)(C)C)cc3)C[C@@H]2C1` (mixture of isomers) [Example 93, rac-2-[5-(4-tert-butylphenyl)-5-hydroxy-octahydrocyclopenta[c]pyrrol-2-yl]-1-(4-hydroxyphenyl)propan-1-one], the IC50 was above 10 µM under setting [1] and at least 10 µM under setting [2].
As for `Oc1ccc(C(O)CN2C[C@@H]3C[C@@](O)(Cc4cccs4)C[C@@H]3C2)cc1F` (mixture of isomers) [Example 222, rac-2-(2-(3-fluoro-4-hydroxyphenyl)-2-hydroxyethyl)-5-(thiophen-2-ylmethyl)octahydrocyclo-penta[c]pyrrol-5-ol], the IC50 is below 0.1 µM under setting [1] and 0.0193 µM under setting [2].
Under setting [2], `COc1cccc(C[C@]2(O)C[C@H]3CN(CC(O)c4ccc(O)cc4)C[C@H]3C2)c1` (mixture of isomers) [Example 195, rac-(3aR,5r,6aS)-2-(2-hydroxy-2-(4-hydroxyphenyl)ethyl)-5-(3-methoxy-benzyl)octahydro-cyclopenta[c]pyrrol-5-ol] showed an IC50 of 0.0287 µM.
